The source of these data is patent US12428370B2, “Haloallylamine dual amine oxidase inhibitors” (Syntara Limited, priority 2020, dated 2025).

SMILES strings stand for the structures. Where a name gives a salt, the structure may show the parent alone. Bounds are passed on as bounds.

In one data set the target is T1, recombinant human MAO-A (Homo sapiens, UniProt P21397).
T1 construct: purchased Sigma Aldrich
T1 sequence (P21397 1-527): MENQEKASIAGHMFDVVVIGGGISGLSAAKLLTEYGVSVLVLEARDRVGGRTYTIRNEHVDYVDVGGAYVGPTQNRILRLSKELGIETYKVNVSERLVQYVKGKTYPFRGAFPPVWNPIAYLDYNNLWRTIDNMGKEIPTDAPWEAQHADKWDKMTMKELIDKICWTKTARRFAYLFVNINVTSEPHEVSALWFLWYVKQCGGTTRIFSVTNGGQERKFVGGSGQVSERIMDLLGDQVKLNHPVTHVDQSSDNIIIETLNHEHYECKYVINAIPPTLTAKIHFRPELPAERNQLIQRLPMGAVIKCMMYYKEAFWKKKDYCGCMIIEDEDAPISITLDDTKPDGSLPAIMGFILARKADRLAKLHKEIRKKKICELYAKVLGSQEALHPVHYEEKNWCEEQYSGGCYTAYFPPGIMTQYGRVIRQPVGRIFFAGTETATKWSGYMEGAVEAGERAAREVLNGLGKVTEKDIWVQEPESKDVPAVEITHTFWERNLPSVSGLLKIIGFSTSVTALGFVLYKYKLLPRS
Put plainly: Inhibition of human recombinant MAO-A. The class given is biochemical. Particulars: incubation time of 2 hours, tyramine 100 μM. The protocol: Method to Determine the Ability of Compounds of Formula I to Inhibit Human Recombinant MAO-A
The selectivity of the compounds of this invention was tested by determining their ability to inhibit MAO-A activity in vitro, using recombinant human MAO-A (0.003 mg/mL; Sigma Aldrich). The assay was performed in a similar way as for human SSAO/VAP-1 (EXAMPLE 9) except, the substrate tyramine was used at 100 μM in place of benzylamine and the assay was run after an incubation time of 2 hours.

Data set [1] concerns mdx mice (C57BL/10ScSn-Dmdmdx/J). Put plainly: Mouse model of Duchenne muscular dystrophy, PXS-5131. The class given is in vivo. The note with it: 6 mg/kg/day oral, 4 weeks, 3 months old mdx mice. The protocol: mdx mice (C57BL/10ScSn-Dmdmdx/J) were obtained from Jackson Laboratories, Maine, US. […] Untreated, age-matched animals were used as controls. The drug was administered using small palatable gelatin pellets prepared with 10% gelatin in 20% sucralose plus food flavoring (Zhang L. Protoc. Exch. 2011, 236) Animals were pre-conditioned to recognize and eat the gelatins with a three-day routine involving overnight fasting followed by exposure of each single animal to the gelatin without the active principle, in the absence of other food. Palatability was further improved by dipping the pellets in corn oil containing trace amounts of almond oil and then breading them with pulverized food pellet.
Muscle function in vivo was assessed for the gastrocnemius muscle, as described by Blaauw B. et al., Hum. Mol. Genet. 2008, 17, 3686-3696. Mice were anesthetized, and electrodes were placed on either side of the sciatic nerve, while the common peroneal nerve was cut. Muscle torque production was measured using a lever system (Aurora Scientific 305B). A lever arm of 2.1 mm was used for all groups, as no major differences in body weight between various groups was observed. Eccentric contractions were performed by moving the foot backward at a velocity of 40 mm/s while the gastrocnemius was stimulated with a frequency sufficient to induce full tetanic fusion (100 Hz). Contractions were repeated once every 20 s to avoid inducing fatigue (see FIG. 6).
After the force measurements described above, animals were sacrificed by cervical dislocation and the skeletal muscle and the heart (minus the atria) were collected, flash-frozen in isopentane pre-cooled with liquid nitrogen and stored at −80° C. 12 μm sections from a limb muscle (tibialis anterior) were prepared with a cryotome; multiple serial slides were prepared, containing sections from at least three different levels. The same procedure was used to prepare heart transverse sections.
The amount of the neutrophil and macrophage infiltration was determined in serial sections of skeletal muscle prepared as described above, which were fixed and then stained via immunofluorescence with an anti Ly6G and an anti F4/80 antibody (AbCam, ab25377 and ab6640, for neutrophils and macrophages, respectively). The amount of infiltrate was assessed as percentage of fluorophore-positive pixel over the total area of the sections, using Image-J software (FIGS. 7A and B).
The amount of reactive oxygen species (ROS) present in the skeletal muscle tissue sections was assessed using dihydroethidium (DHE, Sigma) as a fluorescent probe in freshly cut tissue sections as described by Menazza et al., et al., Hum. Mol. Genet. 2010, 19, 4207-4215. In the presence of ROS, DHE is oxidized forming ethidium, which then can bind to nuclear DNA and emit red fluorescence. The amount of the red fluorescence was then measured from at least 20 random fields per each section using the Metafluor software (Leica), and data were averaged per field (FIG. 7C).
The percentage of fibrotic tissue in skeletal muscle was determined by picrosirius red staining. […] Whole images of at least three sections per muscle sample were then acquired with a bright field microscope and then analyzed with Image-J software, in order to measure the percentage of fibrotic (red) areas with respect to the total surface (FIG. 7D).

The nature of data set [2]: Metabolic stability profile (liver microsomes, hepatocytes, plasma, whole blood, simulated gastric fluid, metabolite identification). The class given is in vitro ADME. The note with it: all assays: liver microsomes, plasma (human, rat, dog), simulated gastric fluid pH 1.2, metabolite identification. The protocol:
Assessment of the metabolic stability profile of Compound 1 using standardized commercially available methods (available through contract research organizations such as Eurofins Panlabs Inc, (https://www.eurofinsdiscoveryservices.com/services/in-vitro-assays/) or Evotec SE, (https://www.evotec.com/en/execute/integrated-pre-clinical-development/adme)).
The potential for metabolism in vivo was evaluated in vitro using the following assays:
Liver microsomal stability (human, rat, dog; in presence of NADPH)
Hepatocyte stability (human, rat, dog)
Plasma stability (human, rat, dog)
Whole blood stability (human, rat)
Simulated gastric fluid stability (10 μM test article, pH 1.2)
Metabolite identification in human hepatocytes

Usually IC50 stands for the midpoint of a concentration-inhibition curve. On to `NC/C(=C\F)C1Cc2ccccc2O1` (single isomer, unassigned; (-)) [PXS-5131, (−)-(E)-2-(2,3-Dihydrobenzofuran-2-Yl)-3-Fluoroprop-2-En-1-Amine Hydrochloride], for which, on recombinant human MAO-A, the IC50 was in the range of 0.3 to 3 µM. Also, the “neutrophil influx in the tibialis anterior muscle” value in data set [1] (p<0.0001, FIG. 7A) is recorded as “significantly reduces”. Further, in data set [1] (p<0.0001, FIG. 7B), the “macrophage influx in the tibialis anterior muscle” value is listed as “significantly reduces”. In data set [1] (p<0.0001, FIG. 7C), the “reactive oxygen species in the tibialis anterior muscle” value is recorded as “significantly reduces”. Also, the “fibrosis (picrosirius red staining) in the tibialis anterior muscle” value in data set [1] (p<0.0001, FIG. 7D) is “significantly reduces”. The “loss of force caused by eccentric contractions in the gastrocnemius muscle” value in data set [1] (p<0.05, FIG. 6) is reported as “helps protect against the loss of force”.
For `N#Cc1ccc(OC/C(=C/F)CN)cc1` [Compound 1, (E)-4-((2-(aminomethyl)-3-fluoroallyl)oxy) benzonitrile], in data set [2], the metabolic stability result is “favourable metabolic stability”. Also, the IC50 at recombinant human MAO-A is > 30 µM.
